Converted amounts (≈) assume the structure as drawn.
Key:
Staphylococcus aureus [1] = assay: Antimicrobial activity against Staphylococcus aureus RN4220; type: functional
Bacillus sp. BS-01 = assay: (§1) Antimicrobial activity against Bacillus sp. BS-01 expressing multiple resistance gene cfr and […] resistance gene fexA obtained from swine feces; type: functional
Staphylococcus aureus [2] = assay: Antimicrobial activity against Staphylococcus aureus RN4220 harboring pBS-01multiple resistance gene cfr and phenolic resistance gene fexA obtained from swine feces
[3] = as §1; type: functional; conditions: Bacillus sp. BS-01, Feces

Molecule | MIC (Staphylococcus aureus [1]) [µg/mL] | MIC (Bacillus sp. BS-01) [µg/mL] | MIC (Staphylococcus aureus [2]) [µg/mL] | MIC [3] [µg/mL]
GENTAMICIN | 0.25 | 8 |  | 
CCC[C@@H]1C[C@@H](C(=O)N[C@@H]([C@H]2O[C@H](SC)[C@H](O)[C@@H](O)[C@H]2O)[C@H](C)Cl)N(C)C1 [CLINDAMYCIN] | > 32 |  | < 0.625 | > 32
O=C(N[C@H](CO)[C@H](O)c1ccc([N+](=O)[O-])cc1)C(Cl)Cl [CHLORAMPHENICOL] | 16 (≈ 49.5 µM) |  | 4 (≈ 12.4 µM) | 32 (≈ 99 µM)
CN[C@H](CC(C)C)C(=O)N[C@H]1C(=O)N[C@@H](CC(N)=O)C(=O)N[C@H]2C(=O)N[C@H]3C(=O)N[C@H](C(=O)N[C@H](C(=O)O)c4cc(O)cc(O)c4-c4cc3ccc4O)[C@H](O)c3ccc(c(Cl)c3)Oc3cc2cc(c3O[C@@H]2O[C@H](CO)[C@@H](O)[C@H](O)[C@H]2O[C@H]2C[C@](C)(N)[C@H](O)[C@H](C)O2)Oc2ccc(cc2Cl)[C@H]1O [VANCOMYCIN] |  |  |  | 0.5 (≈ 0.345 µM)
CC[C@H]1OC(=O)[C@H](C)[C@@H](O[C@H]2C[C@@](C)(OC)[C@@H](O)[C@H](C)O2)[C@H](C)[C@@H](O[C@@H]2O[C@H](C)C[C@H](N(C)C)[C@H]2O)[C@](C)(O)C[C@@H](C)C(=O)[C@H](C)[C@@H](O)[C@]1(C)O [ERYTHROMYCIN] | > 64 |  | 0.25 (≈ 0.341 µM) | > 64
CS(=O)(=O)c1ccc([C@@H](O)[C@@H](CF)NC(=O)C(Cl)Cl)cc1 [FLORFENICOL] | 16 (≈ 44.7 µM) |  | 4 (≈ 11.2 µM) | 32 (≈ 89.3 µM)
CC(=O)NC[C@H]1CN(c2ccc(N3CCOCC3)c(F)c2)C(=O)O1 [LINEZOLID] |  |  | 1 (≈ 2.96 µM) | 2 (≈ 5.93 µM)
O=C(O)c1cn(C2CC2)c2cc(N3CCNCC3)c(F)cc2c1=O [CIPROFLOXACIN] | 0.5 (≈ 1.51 µM) |  | 0.5 (≈ 1.51 µM) | 8 (≈ 24.1 µM)
C=C[C@]1(C)C[C@@H](OC(=O)CSCCN(CC)CC)[C@]2(C)[C@H](C)CC[C@]3(CCC(=O)[C@H]32)[C@@H](C)[C@@H]1O [TIAMULIN] | 32 (≈ 64.8 µM) |  | < 0.5 | 256 (≈ 518 µM)
CN(C)[C@@H]1C(O)=C(C(N)=O)C(=O)[C@@]2(O)C(O)=C3C(=O)c4c(O)cccc4[C@@](C)(O)[C@H]3C[C@@H]12 [TETRACYCLINE] | 1 (≈ 2.25 µM) |  | 1 (≈ 2.25 µM) | 32 (≈ 72 µM)

— ChEMBL document CHEMBL1649326, “First report of the multidrug resistance gene cfr and the phenicol resistance gene fexA in a Bacillus strain from swine feces” (2010)
